For series [1], the species on record is Homo sapiens. As to the kind of experiment: Inhibition of […] pathway in human PC3 cells assessed as phosphorylation of S6 at ser235 residues at 100 uM after 1 hr by alexa fluor 488 probe based flow cytometric analysis (reference value: 48.58%). It is filed as cell-based. Background: A flow cytometer gives signals particle by particle.
A short description of series [2]: Selectivity index, ratio of cytotoxic concentration against mouse Balb/c 3T3 clone A31 cells to EC50 for human PC3 cells. The class given is functional.
The species named for series [3] is Homo sapiens. As to the kind of experiment: Inhibition of […] pathway in human PC3 cells assessed as phosphorylation of AKT at ser473 residues at 100 uM after 1 hr by PerCP probe based flow cytometric analysis (reference value: 43.92%). The class given is cell-based.
The subject of the next series is PC-3. Nature of the series: Cytotoxicity against human PC3 cells by MTT assay. The class given is functional, cell-based.
Series [4] is described as follows: Cytotoxicity against mouse Balb/c 3T3 clone A31 cells assessed as cell viability at 100 uM by MTT assay relative to control. It is filed as cell-based. Conditions: read-out: Activity. (In general: Tetrazolium assays rely on reduction of a dye to a coloured formazan, in cell work by metabolically active cells.)
In another series the test system is DU-145. Nature of the series: Cytotoxicity against human DU145 cells by MTT assay. It is filed as functional, cell-based.

Calls of active or inactive are those of the source. The rule behind the calls is not given here. Bounds are passed on as bounds.

Experimental findings from ChEMBL document CHEMBL4052808, “Novel anti-prostate cancer scaffold identified by the combination of in silico and cell-based assays targeting the PI3K-AKT-mTOR pathway” (Bioorg Med Chem Lett, 2017) are described below.

Usually inhibition stands for how much of the control response was suppressed. For orientation: EC50 means the concentration at which the effect is half-maximal. A lower EC50 goes with greater potency.

Turning to `CO[C@H]1C[C@@H]2CC[C@@H](C)[C@@](O)(O2)C(=O)C(=O)N2CCCC[C@H]2C(=O)O[C@H]([C@H](C)C[C@@H]2CC[C@@H](O)[C@H](OC)C2)CC(=O)[C@H](C)/C=C(\C)[C@@H](O)[C@@H](OC)C(=O)[C@H](C)C[C@H](C)/C=C/C=C/C=C/1C` [SIROLIMUS], the inhibition in the series filed under Homo sapiens [1] is 7.24%; in the series filed under Homo sapiens [3], 28.9%. In addition, in series [2], the “Selectivity Index” value is above 2.32. Besides, in the series with PC-3, the EC50 was 43.1 µM. The viability at 100 µM in series [4] is 58.3%.

As for `Nc1ccc(C(=O)N2CCC(Cc3ccc(F)cc3)CC2)cn1`, the inhibition in the series filed under Homo sapiens [1] amounted to 14%; in the series listed under Homo sapiens [3] it was 39.4%. In addition, in series [2], the “Selectivity Index” value is above 1.33. In the series on DU-145, the outcome was inactive. A half-maximal response in the series with PC-3 (EC50) required 75 µM. The viability at 100 µM in series [4] turned out to be 68.1%.

In the case of `COCC[n+]1c2c(n(Cc3cnccn3)c1C)C(=O)c1ccccc1C2=O` [SEPANTRONIUM BROMIDE], the EC50 in the series on DU-145 stood at 0.0138 µM; in the series with PC-3 it was 0.092 µM.

As to `Cc1ccccc1SC1CCN(C(=O)c2ccc(N)nc2)CC1`, the inhibition in the series listed under Homo sapiens [1] was determined as 15.5%; in the series filed under Homo sapiens [3] it was 34.8%. Further, the “Selectivity Index” value in series [2] is above 1.65. For the same compound, the result in the series with DU-145 was inactive. Moreover, a half-maximal effect in the series on PC-3 (EC50) was put at 60.7 µM. The viability at 100 µM in series [4] came to 95.4%.
